Measurements: paper PMC6272417, “Quercitrin, an Inhibitor of Sortase A, Interferes with the Adhesion of Staphylococcal aureus” (Molecules, 2015)

Legend:
Details in all cases: read-out: Binding Constants KA (1 × 10^5) L.mol^-1 (converted)
Sortase A (SrtA) [1] = molecular target: T1, Sortase A (SrtA) (Staphylococcus aureus, UniProt Q2FV99); experiment: fluorescence-quenching binding constant KA; also FRET inhibition of purified SrtAΔN59 (IC50 […])
T1 construct: SrtAΔN59 (residues 60-206)

Sortase A (SrtA) [2] = molecular target: T2, Sortase A (SrtA) (Staphylococcus aureus, UniProt Q2FV99, G167A); experiment: fluorescence-quenching binding constant KA
T2 construct: SrtAΔN59 (residues 60-206)

Sortase A (SrtA) [3] = molecular target: T3, Sortase A (SrtA) (Staphylococcus aureus, UniProt Q2FV99, V193A); experiment: fluorescence-quenching binding constant KA
T3 construct: SrtAΔN59 (residues 60-206)

**Q.** Which Kd (Sortase A (SrtA) [1]) does the source give for `C[C@@H]1O[C@@H](Oc2c(-c3ccc(O)c(O)c3)oc3cc(O)cc(O)c3c2=O)[C@H](O)[C@H](O)[C@H]1O` [QEN, Quercitrin] here?
**A.** 1450 nM

**Q.** And the Kd (Sortase A (SrtA) [2])?
**A.** 2700 nM

**Q.** What about the Kd (Sortase A (SrtA) [3]) of the same compound?
**A.** 2380 nM
